Assay [1] can be described thus: Neuroprotective activity against rat cortical cells assessed as glutamate-induced neurotoxicity by MTT assay. The format is functional, cell-based.
Assay [2] can be described thus: Neuroprotective activity against rat cortical cells at 0.1 uM assessed as glutamate-induced neurotoxicity by MTT assay. The format is functional.
A short description of assay [3]: Neuroprotective activity against rat cortical cells at 1.0 uM assessed as glutamate-induced neurotoxicity by MTT assay. The format is functional.
Assay [4] can be described thus: Neuroprotective activity against rat cortical cells at 10.0 uM assessed as glutamate-induced neurotoxicity by MTT assay. The format is functional.

The structures appear in SMILES notation. Structures can show the parent of a compound that is named as a salt.

Consider `CC1=C2C(=O)O[C@@H](c3ccoc3)[C@]2(C)CC[C@@H]1O`, for which, in assay [1], the EC50 amounted to 98 nM. The maximum response (Emax) at 0.1 µM in assay [2] amounted to 51.1%.

For the molecule `CC1=C2C(=O)O[C@@H](c3ccoc3)[C@]2(C)CC[C@H]1O[C@@H]1O[C@H](CO)[C@@H](O)[C@H](O)[C@H]1O`, the EC50 in assay [1] is 705 nM. In addition, in assay [3], the Emax at 1 µM is 53%.

Turning to `CC1=CCC[C@@]2(C)[C@H](c3ccoc3)OC(=O)[C@H]3O[C@]132` [CALODENDROLIDE], in assay [1], the EC50 amounted to 19 nM. Besides, the Emax at 0.1 µM in assay [2] was 71.9%.

As for `CC1=C2[C@@H](O)C(=O)O[C@@H](c3ccoc3)[C@]2(C)CC[C@@H]1O` [DICTAMDIOL A], the 50% effective concentration (EC50) in assay [1] was 68 nM. Further, the Emax at 0.1 µM in assay [2] was 68.1%.

Take `CC1=C2[C@H](O)C(=O)O[C@@H](c3ccoc3)[C@]2(C)CC[C@H]1O` [DICTAMDIOL B]: the Emax at 0.1 µM in assay [2] worked out at 45.6%.

As to `CC1=C2[C@H](O)C(=O)O[C@@H](c3ccoc3)[C@]2(C)CC[C@@H]1O` [DICTAMDIOL], in assay [2], the Emax at 0.1 µM was found to be 35.3%.

In the case of `C[C@H]1C2=C(O)C(=O)O[C@@H](c3ccoc3)[C@]2(C)CC[C@@H]1O[C@@H]1O[C@H](CO)[C@@H](O)[C@H](O)[C@H]1O` [DICTAMNUSINE], the EC50 in assay [1] worked out at 42 nM. Moreover, the Emax at 0.1 µM in assay [2] was found to be 62.1%.

In the case of `C[C@]12N[C@H](Cc3ccccc31)c1ccccc12` [DIZOCILPINE MALEATE], the EC50 in assay [1] came to 480 nM. For the same molecule, in assay [4], the Emax at 10 µM came to 83.8%.

Turning to `CC1=C2C(=O)O[C@@H](c3ccoc3)[C@]2(C)CCC1` [FRAXINELLONE], in assay [1], the 50% effective concentration (EC50) was 22 nM. Moreover, the Emax at 0.1 µM in assay [2] worked out at 70.4%.

In the case of `CC1=C2C(=O)O[C@@H](c3ccoc3)[C@]2(C)CCC1=O` [FRAXINELLONONE], the Emax at 1 µM in assay [3] was 47.6%.

With `CC1(C)O[C@H]2CC(=O)OC[C@]23[C@H]2CC[C@@]4(C)[C@H](c5ccoc5)OC(=O)[C@H]5O[C@]54[C@]2(C)C(=O)C[C@@H]13` [LIMONIN], the EC50 in assay [1] worked out at 18 nM. Besides, in assay [2], the Emax at 0.1 µM worked out at 75.9%.

In the case of `CC1(C)OC(=O)C=C[C@]2(C)[C@H]3CC[C@@]4(C)[C@H](c5ccoc5)OC(=O)[C@H]5O[C@]54[C@]3(C)C(=O)C[C@@H]12` [OBACUNONE], in assay [1], the EC50 worked out at 39 nM. In addition, the Emax at 0.1 µM in assay [2] was 63.9%.

As to `CC1(C)O[C@H]2CC(=O)OC[C@]23[C@H]2CC[C@@]4(C)[C@H](c5ccoc5)OC(=O)[C@H]5O[C@]54[C@]2(C)[C@@H](O)C(=O)[C@@H]13` [RUTAEVIN], in assay [1], the EC50 stood at 3060 nM. For the same molecule, the maximal effect (Emax) at 10 µM in assay [4] amounted to 65.4%.
